Measurements reported in US11708348B2, “Protease inhibitors for treatment of coronavirus infections” (The Scripps Research Institute, priority 2021, dated 2023).
Structures can show the parent of a compound that is named as a salt. Where two headings read alike, the source gives them in different places.

Tested on: SARS-CoV-2 strain USA-WA1/2020
Assay: microbe, parasite or virus in culture
Type: cell-based
Conditions: Severe acute respiratory syndrome coronavirus 2, HeLa-ACE2, 24 h, read-out: EC50, uM (Hela)
[1] = HeLa-ACE2 cells, SARS-CoV-2 infection, 24 h, class symbols
[2] = HeLa-ACE2 cells, SARS-CoV-2 infection, 24 h

**Q.** How did the EC50 [1] turn out when CC(C)C[C@H](NC(=O)[C@H](O)c1cccc(Cl)c1)C(=O)N[C@@H](C[C@@H]1CCNC1=O)C(=O)COc1c(F)c(F)cc(F)c1F [Compound 146, (S)-2-((R)-2-(3-chlorophenyl)-2-hydroxyacetamido)-4-methyl-N-((S)-3-oxo-1-((S)-2-oxopyrrolidin-3-yl)-4-(2,3,5,6-tetrafluorophenoxy)butan-2-yl)pentanamide] was run?
**A.** 0.05 to 0.2 µM

**Q.** CC(C)(C)CC(O)C(=O)N1C[C@H]2[C@@H]([C@H]1C(=O)N[C@@H](C[C@@H]1CCNC1=O)C(=O)COC(F)(F)F)C2(C)C (stereo partly drawn) [Compound 347, (1R,2S,5S)-3-(2-hydroxy-4,4-dimethylpentanoyl)-6,6-dimethyl-N-((S)-3-oxo-1-((S)-2-oxopyrrolidin-3-yl)-4-(trifluoromethoxy)butan-2-yl)-3-azabicyclo-[3.1.0]hexane-2-carboxamide] was tested. Which EC50 [1] did it give?
**A.** < 0.05 µM

**Q.** For CC(C)C[C@@H](O)C(=O)N1C[C@H]2[C@@H]([C@H]1C(=O)N[C@@H](C[C@@H]1CCNC1=O)C(=O)COC(F)(F)F)C2(C)C [Compound 361, (1R,2S,5S)-3-((R)-2-hydroxy-4-methylpentanoyl)-6,6-dimethyl-N-((S)-3-oxo-1-((S)-2-oxopyrrolidin-3-yl)-4-(trifluoromethoxy)butan-2-yl)-3-azabicyclo-[3.1.0]hexane-2-carboxamide], which EC50 [1] is on record?
**A.** < 0.05 µM

**Q.** With CC(C)C[C@H](NC(=O)C(=O)Nc1ccccc1F)C(=O)N[C@@H](C[C@@H]1CCNC1=O)C(=O)COP(=O)(c1ccccc1)c1ccccc1 [Compound 125, (S)-3-((S)-2-(2-((2-fluorophenyl)amino)-2-oxoacetamido)-4-methylpentanamido)-2-oxo-4-((S)-2-oxopyrrolidin-3-yl)butyl diphenylphosphinate] as the compound, how does the EC50 read?
**A.** < 0.05 µM

**Q.** For O=C1NCC[C@H]1C[C@H](NC(=O)[C@@H]1CC2(CC2)CN1C(=O)C1CC(F)(F)C1)C(=O)COC(F)(F)F [Compound 721, (S)-5-(3,3-difluorocyclobutane-1-carbonyl)-N-((S)-3-oxo-1-((S)-2-oxopyrrolidin-3-yl)-4-(trifluoromethoxy)butan-2-yl)-5-azaspiro[2.4]heptane-6-carboxamide], which EC50 [2] is on record?
**A.** 0.05 to 0.2 µM

**Q.** Which EC50 [1] does the source give for CC[C@@H](O)C(=O)NC(CC1(C)CC1)C(=O)N[C@@H](C[C@@H]1CCNC1=O)C(=O)COC(F)(F)F (stereo partly drawn) [Compound 372, (2R)-2-hydroxy-N-(3-(1-methylcyclopropyl)-1-oxo-1-(((S)-3-oxo-l-((S)-2-oxopyrrolidin-3-yl)-4-(trifluoromethoxy)butan-2-yl)amino)propan-2-yl)butanamide] here?
**A.** 0.2 to 0.5 µM

**Q.** Which EC50 [2] does the source give for O=C1NCC[C@H]1C[C@H](NC(=O)[C@@H]1[C@H]2CCC[C@H]2CN1C(=O)C(=O)N1CCOCC1)C(=O)COC(F)(F)F [Compound 544, (1S,3aR,6aS)-2-(2-morpholino-2-oxoacetyl)-N-((S)-3-oxo-1-((S)-2-oxopyrrolidin-3-yl)-4-(trifluoromethoxy)butan-2-yl)octahydrocyclo-penta[c]pyrrole-1-carboxamide] here?
**A.** 0.5 to 1 µM

**Q.** Which EC50 [2] does the source give for O=C1NCC[C@H]1C[C@H](NC(=O)[C@@H]1CC2(CC2)CN1C(=O)[C@H](O)C1CCC1)C(=O)COC(F)(F)F [Compound 760, (S)-5-((R)-2-cyclobutyl-2-hydroxyacetyl)-N-((S)-3-oxo-1-((S)-2-oxopyrrolidin-3-yl)-4-(trifluoromethoxy)butan-2-yl)-5-azaspiro[2.4]heptane-6-carboxamide] here?
**A.** 0.05 to 0.2 µM

**Q.** CN(C)S(=O)(=O)NCC(=O)N1CC2(CC2)C[C@H]1C(=O)N[C@@H](C[C@@H]1CCNC1=O)C(=O)COC(F)(F)F [Compound 692, (S)-5-((N,N-dimethylsulfamoyl)glycyl)-N-((S)-3-oxo-1-((S)-2-oxopyrrolidin-3-yl)-4-(trifluoromethoxy)butan-2-yl)-5-azaspiro[2.4]heptane-6-carboxamide] was tested. Which EC50 [2] did it give?
**A.** 0.2 to 0.5 µM

**Q.** CC(C)C[C@@H](O)C(=O)N1[C@H](C(=O)N[C@@H](C[C@@H]2CCNC2=O)C(=O)COC(F)(F)F)CCC1(C)C [Compound 787, (S)-1-((R)-2-hydroxy-4-methylpentanoyl)-5,5-dimethyl-N-((S)-3-oxo-1-((S)-2-oxopyrrolidin-3-yl)-4-(trifluoromethoxy)butan-2-yl)pyrrolidine-2-carboxamide] was tested. Which EC50 [2] did it give?
**A.** 0.05 to 0.2 µM

**Q.** Which EC50 does the source give for CC(C)C[C@H](NC(=O)C(=O)Nc1ccccc1)C(=O)N[C@@H](C[C@@H]1CCNC1=O)C(=O)COP(C)(=O)c1ccccc1 (stereo partly drawn) [Compound 653, (S)-3-((S)-4-methyl-2-(2-oxo-2-(phenylamino)acetamido)pentanamido)-2-oxo-4-((S)-2-oxopyrrolidin-3-yl)butyl methyl(phenyl)phosphinate] here?
**A.** 0.2 to 0.5 µM

**Q.** With O=C(N[C@@H](C[C@@H]1CCNC1=O)C(=O)COC(F)(F)F)C1CCCCN1C(=O)[C@@H](O)c1ccccc1 (stereo partly drawn) [Compound 769, l-((S)-2-hydroxy-2-phenylacetyl)-N-((S)-3-oxo-1-((S)-2-oxopyrrolidin-3-yl)-4-(trifluoromethoxy)butan-2-yl)piperidine-2-carboxamide] as the compound, how does the EC50 [2] read?
**A.** < 0.05 µM

**Q.** Cc1cccc(F)c1NC(=O)C(=O)N[C@@H](CC(C)C)C(=O)N[C@@H](C[C@@H]1CCNC1=O)C(=O)COc1c(F)c(F)cc(F)c1F [Compound 82, N1-(2-fluoro-6-methylphenyl)-N2-((S)-4-methyl-1-oxo-1-(((S)-3-oxo-1-((S)-2-oxopyrrolidin-3-yl)-4-(2,3,5,6-tetrafluorophenoxy)butan-2-yl)amino)pentan-2-yl)oxalamide] was tested. Which EC50 [1] did it give?
**A.** < 0.05 µM

**Q.** How did the EC50 [1] turn out when O=C1NCC[C@H]1C[C@H](NC(=O)[C@@H]1CC2(CC2)CN1C(=O)C(O)CC(C(F)(F)F)C(F)(F)F)C(=O)COC(F)(F)F (stereo partly drawn) [Compound 389, (6S)-N-((S)-3-oxo-1-((S)-2-oxopyrrolidin-3-yl)-4-(trifluoromethoxy)butan-2-yl)-5-(5,5,5-trifluoro-2-hydroxy-4-(trifluoromethyl)-pentanoyl)-5-azaspiro[2.4]heptane-6-carboxamide] was run?
**A.** < 0.05 µM

**Q.** For O=C(Nc1ccccc1F)C(=O)N1[C@@H]2C[C@@H]2C[C@H]1C(=O)N[C@@H](C[C@@H]1CCNC1=O)C(=O)COC(F)(F)F [Compound 265, (1R,S 5R)-2-(2-((2-fluorophenyl)amino)-2-oxoacetyl)-N-((S)-3-oxo-1-((S)-2-oxopyrrolidin-3-yl)-4-(trifluoromethoxy)butan-2-yl)-2-azabicyclo-[3.1.0]-hexane-3-carboxamide], which EC50 [1] is on record?
**A.** 0.05 to 0.2 µM

**Q.** With CC(C)C[C@H](NC(=O)C(=O)Nc1ccccc1F)C(=O)N[C@@H](Cc1cnc[nH]1)C(=O)COc1c(F)c(F)cc(F)c1F (single isomer, unassigned) [Compound 135, trifluoroacetate] as the compound, how does the EC50 read?
**A.** 0.5 to 1 µM

**Q.** With Cc1cc(Cl)ccc1NC(=O)C(=O)N[C@@H](CC(C)C)C(=O)N[C@@H](C[C@@H]1CCNC1=O)C(=O)COc1c(F)c(F)cc(F)c1F [Compound 77, N1-(4-chloro-2-methylphenyl)-N2-((S)-4-methyl-1-oxo-1-(((S)-3-oxo-1-((S)-2-oxopyrrolidin-3-yl)-4-(2,3,5,6-tetrafluorophenoxy)butan-2-yl)amino)pentan-2-yl)oxalamide] as the compound, how does the EC50 [1] read?
**A.** < 0.05 µM

**Q.** With CC(C)(C)C[C@@H](O)C(=O)N1CC2(CC2)C[C@H]1C(=O)N[C@@H](C[C@@H]1CCNC1=O)C(=O)COC(F)(F)F [Compound 658, (S)-5-((R)-2-hydroxy-4,4-dimethylpentanoyl)-N-((S)-3-oxo-1-((S)-2-oxopyrrolidin-3-yl)-4-(trifluoromethoxy)butan-2-yl)-5-azaspiro[2.4]heptane-6-carboxamide] as the compound, how does the EC50 [2] read?
**A.** < 0.05 µM

**Q.** Which EC50 [1] does the source give for O=C(Nc1ccccc1F)C(=O)N1CCC[C@H]1C(=O)N[C@@H](C[C@@H]1CCNC1=O)C(=O)COc1c(F)c(F)cc(F)c1F [Compound 91, (S)-1-(2-((2-fluorophenyl)amino)-2-oxoacetyl)-N-((S)-3-oxo-1-((S)-2-oxopyrrolidin-3-yl)-4-(2,3,5,6-tetrafluorophenoxy)butan-2-yl)pyrrolidine-2-carboxamide] here?
**A.** 0.5 to 1 µM

**Q.** How did the EC50 [2] turn out when CC1(C)[C@@H]2[C@@H](C(=O)N[C@H](C[C@@H]3CCNC3=O)C(=O)COC(F)(F)F)N(C(=O)[C@H](O)c3ccccc3)C[C@@H]21 [Compound 715, (1R,2S,5S)-3-((R)-2-hydroxy-2-phenylacetyl)-6,6-dimethyl-N-((R)-3-oxo-1-((S)-2-oxopyrrolidin-3-yl)-4-(trifluoromethoxy)butan-2-yl)-3-azabicyclo[3.1.0]hexane-2-carboxamide] was run?
**A.** 0.05 to 0.2 µM

**Q.** With CC1(C)[C@@H]2[C@@H](C(=O)N[C@@H](C[C@@H]3CCNC3=O)C(=O)COC(F)(F)F)N(C(=O)c3cc(F)cc(F)c3O)C[C@@H]21 [Compound 594, (1R,2S,5S)-3-(3,5-difluoro-2-hydroxybenzoyl)-6,6-dimethyl-N-((S)-3-oxo-1-((S)-2-oxopyrrolidin-3-yl)-4-(trifluoromethoxy)butan-2-yl)-3-azabicyclo-[3.1.0]hexane-2-carboxamide] as the compound, how does the EC50 [2] read?
**A.** 0.05 to 0.2 µM

**Q.** With [2H]C([2H])([2H])C([2H])([2H])C([2H])([2H])C([2H])([2H])C(=O)N1CC2(CC2)C[C@H]1C(=O)N[C@@H](C[C@@H]1CCNC1=O)C(=O)COC(F)(F)F [Compound 732, (S)-N-((S)-3-oxo-1-((S)-2-oxopyrrolidin-3-yl)-4-(trifluoromethoxy)butan-2-yl)-5-(pentanoyl-d9)-5-azaspiro[2.4]heptane-6-carboxamide] as the compound, how does the EC50 [2] read?
**A.** < 0.05 µM

**Q.** How did the EC50 turn out when O=C1NCC[C@H]1C[C@H](NC(=O)[C@@H]1CC2(CC2)CN1C(=O)C(F)(F)F)C(=O)COC(F)(F)F [Compound 703, (S)-N-((S)-3-oxo-1-((S)-2-oxopyrrolidin-3-yl)-4-(trifluoromethoxy)butan-2-yl)-5-(2,2,2-trifluoroacetyl)-5-azaspiro[2.4]heptane-6-carboxamide] was run?
**A.** 0.2 to 0.5 µM

**Q.** Which EC50 [1] does the source give for O=C(Nc1ccccc1F)C(=O)NC(CC1CCOCC1)C(=O)N[C@@H](C[C@@H]1CCNC1=O)C(=O)COC(F)(F)F (stereo partly drawn) [Compound 271, N1-(2-fluorophenyl)-N2-(1-oxo-1-(((S)-3-oxo-1-((S)-2-oxopyrrolidin-3-yl)-4-(trifluoromethoxy)butan-2-yl)amino)-3-(tetrahydro-2H-pyran-4-yl)propan-2-yl)oxalamide] here?
**A.** < 0.05 µM
